Measurements taken from patent US6806257B1, “Flavones as inducible nitric oxide synthase inhibitors, cyclooxygenase-2 inhibitors and potassium channel activators” (priority 1999, dated 2004).
Entries after “also recorded” stand apart in the source; their conditions may differ.

How the values were obtained:
[1] = tested on: porcine cerebral arteries; assay: Relaxation elicited by transmural nerve stimulation (TNS) in cerebral arterial segments; details: acute administration 30 μM, U-46619 tone
Method: (§1) In vitro tissue bath studies. The arterial segment (4 mm long) of the circle of Willis was dissected and cannulated with a stainless-steel rod (30-28 gauge) of hemispherical section, and a short piece of platinum wire, and mounted horizontally in a plastic tissue bath containing 6 ml of Krebs' bicarbonate solution. The platinum wire was bent into a U shape and anchored to a gate. The stainless-steel rod was connected to a stain gauge transducer (UC3, available from Gould) for isometric recording of changes in force. The temperature of Krebs' solution in the tissue baths, equilibrated with 95% O2 and 5% CO2, was maintained at 37° C. Tissues were equilibrated in the Krebs' solution for an initial 30 minutes and were mechanically stretched to a resting tension of 0.75 g for another 30 minutes. The segments of the circle of Willis were precontracted with 9,11-dideoxy-9α,11α-epoxymethanoprostagladin F2α(U-46619, 1 μM) to induce an active muscle tone of 0.5-0.75 g. Experimental drugs such as L-arginine and Oroxylin A of various concentrations, and TNS at 2,4,8 Hz were applied to induce relaxation. The arteries were then washed with pre-warmed Krebs' solution. […] Stimulation parameters were continuously monitored on a Tektronix oscilloscope. […] The magnitude of a vasodilator response induced by experimental drugs and TNS was expressed as a percentage of the maximum response induced by PPV. […]

[2] = tested on: porcine cerebral arteries; assay: L-arginine-induced relaxation in LPS-incubated cerebral arteries without endothelial cells; details: LPS 10 μg/ml 20 hours, concomitant 60 μM, U-46619 tone
Method: as §1

[3] = tested on: iNOS; assay: iNOS expression in cultured primary smooth muscle cells from porcine cerebral arteries (immunostaining, Western blot); assay type: cell-based
Method: Culture of smooth muscle cells. The entire brain with dura attached was removed and placed in ice-cold sterile phosphate-buffered saline (PBS) (140 mM NaCl, 4 mM KCl, 1 mM KH2PO4, pH 7.4) containing antibiotics (100 U/ml penicillin G potassium, 100 μg/ml streptomycin sulfate, and 0.25 μg/ml fungizone) (Fisher Scientific, Springfield, N.J.). The arteries of the circle of Willis were removed and cleaned of surrounding tissue under a dissecting microscope. The arteries were then placed on a sterile petri dish and sliced longitudinally. The luminal surface was rubbed with a sterile cotton swab to remove endothelial cells. The vessels were placed in DMEM (Dulbecco's Modified Eagle Medium, Life Technologies, Grand Island, N.Y.) containing antibiotics and stored overnight at 4° C. The vessels were cut into approximately 2×2-mm explants, placed in a 10 cm petri dish, covered with DMEM containing antibiotics plus 20% FBS (fetal bovine serum, Sigma Chemical Co., St Louis, Mo.), and placed in an incubator in an atmosphere of 5% CO2 in air at 37° C. […]
Western blots. […] Expression of iNOS was detected by NBT and BCIP staining (Sigma Chemical Co., St. Louis, Mo.).
Photomicrographs of immunofluorescence at 20× were immediately taken with an Olympus fluorescence microscope fitted with an FITC filter. […]

[4] = tested on: COX-2; assay: LPS-induced COX-2 mRNA in Bcl-2-overexpressed RAW264.7 cells; assay type: cell-based, mouse; details: 20 μg/ml, LPS 100 ng/ml
[5] = tested on: iNOS; assay: LPS-induced nitrite production and iNOS expression in Bcl-2-overexpressed RAW264.7 cells; assay type: cell-based, mouse; details: 20 μg/ml, LPS 100 ng/ml, Bcl-2/RAW-1 and Bcl-2/RAW-2 cells

Structure (SMILES): COc1c(O)cc2oc(-c3ccccc3)cc(=O)c2c1O [oroxylin A, 5,7-dihydroxy-6-methoxy flavone]
- relaxation elicited by TNS at 2, 4, and 8 Hz [1]: slightly and significantly enhanced; also recorded: increased
- LPS-rendered L-Arginine-induced relaxation [2]: significantly decreased
- LPS-induced iNOS-immunoreactive cultured smooth muscle cells ([3]; LPS 10 μg/ml 20 hours, concomitant 60 μM): drastically decreased; also recorded: inhibition
- LPS-induced iNOS proteins, Western blot ([3]; LPS 10 μg/ml, 30 μM and 60 μM): decreased by oroxylin A in a concentration-dependent manner
- LPS-induced COX-2 mRNA [4]: inhibited
- LPS-induced iNOS gene expression [5]: inhibited
- LPS-induced nitrite production [5]: inhibited
